Reference: article PMC11973503 (2024)

What was measured:
[1] = tested on: Poly rA ⋅ Poly rU (RNA, polymer) A/U; experiment: thermal melting; conditions: 100 mM KCl; 10 mM HEPES, 0.4 mM EDTA; 5 μM duplex, ligand 1:10 per base pair; Tm without ligand 58±0.4
[2] = tested on: HTG DNA (DNA, G4) AGGGTTAGGGTTAGGGTTAGGG; experiment: thermal melting; conditions: 100 mM KCl; 10 mM HEPES, 0.4 mM EDTA; ligand to HTG 2.2:1; Tm without ligand 57±1.9
[3] = tested on: Seq 6 dsDNA (5'-CTTCGATAGTG) (DNA, duplex) CTTCGATAGTG/CACTATCGAAG; experiment: fluorescence quantum yield titration; conditions: 100 mM KCl; 10 mM HEPES pH 7, 0.4 mM EDTA, 25 °C
[4] = tested on: Poly dA ⋅ Poly dT (DNA, polymer) A/T; experiment: thermal melting; conditions: 100 mM KCl; 10 mM HEPES, 0.4 mM EDTA; 5 μM duplex, ligand 1:10 per base pair; Tm without ligand 72±1.0
[5] = tested on: Seq 6 dsDNA (DNA, duplex) CTTCGATAGTG/CACTATCGAAG; experiment: thermal melting; conditions: 100 mM KCl; 10 mM HEPES, 0.4 mM EDTA; 5 μM duplex, ligand 1:10 per base pair; Tm without ligand 45±1.1
[6] = tested on: Seq 5 dsDNA (DNA, duplex) GCGCCCGC/GCGGGCGC; experiment: thermal melting; conditions: 100 mM KCl; 10 mM HEPES, 0.4 mM EDTA; 5 μM duplex, ligand 1:10 per base pair; Tm without ligand 54±0.7
[7] = tested on: Seq 4 (GCGGGGGC)2 (DNA, duplex) GCGGGGGC/GCCCCCGC; experiment: fluorescence increase (ΔF), plate reader; conditions: 50 mM NaCl; 10 mM sodium cacodylate, 0.5 mM EDTA, pH 6.0; 1 µM duplex, 1:1 ligand
[8] = tested on: Seq 3 (GGGGCGGG)2 (DNA, duplex) GGGGCGGG/CCCGCCCC; experiment: fluorescence increase (ΔF), plate reader; conditions: 50 mM NaCl; 10 mM sodium cacodylate, 0.5 mM EDTA, pH 6.0; 1 µM duplex, 1:1 ligand
[9] = tested on: HTG DNA (human telomeric G-quadruplex), d[AG3(T2AG3)3] (DNA, G4) AGGGTTAGGGTTAGGGTTAGGG; experiment: thermal melting; conditions: 100 mM KCl; derived from two Tm; 10 mM HEPES, 0.4 mM EDTA; 5 µM DNA; ligand to HTG 2.2:1
[10] = tested on: Seq 2 (CCCCGGGG)2 (DNA, duplex) CCCCGGGG; experiment: fluorescence increase (ΔF), plate reader; conditions: 50 mM NaCl; 10 mM sodium cacodylate, 0.5 mM EDTA, pH 6.0; 1 µM duplex, 1:1 ligand
[11] = tested on: Poly rA ⋅ Poly rU (RNA, polymer) A/U; experiment: thermal melting; conditions: 100 mM KCl, derived from two Tm, 10 mM HEPES, 0.4 mM EDTA, ligand 1:10 per base pair
[12] = tested on: Seq 5 dsDNA (5'-GCGCCCGC) (DNA, duplex) GCGCCCGC/GCGGGCGC; experiment: thermal melting; conditions: 100 mM KCl; 10 mM HEPES pH not given, 0.4 mM EDTA; 5 µM duplex; ligand 1:10 per base pair
[13] = tested on: Poly dA ⋅ Poly dT (DNA, polymer) A/T; experiment: thermal melting; conditions: 100 mM KCl, derived from two Tm, 10 mM HEPES, 0.4 mM EDTA, ligand 1:10 per base pair
[14] = tested on: Seq 1 (GGGGCCCC)2 (DNA, duplex) GGGGCCCC; experiment: fluorescence increase (ΔF), plate reader; conditions: 50 mM NaCl; 10 mM sodium cacodylate, 0.5 mM EDTA, pH 6.0; 1 µM duplex, 1:1 ligand
[15] = tested on: Seq 6 dsDNA (5'-CTTCGATAGTG) (DNA, duplex) CTTCGATAGTG/CACTATCGAAG; experiment: thermal melting; conditions: 100 mM KCl; derived from two Tm; 10 mM HEPES, 0.4 mM EDTA; ligand 1:10 per base pair
[16] = tested on: Seq 5 dsRNA (RNA, duplex) GCGCCCGC/GCGGGCGC; experiment: thermal melting; conditions: 100 mM KCl; 10 mM HEPES pH not given, 0.4 mM EDTA; 5 µM duplex; ligand 1:10 per base pair

Row | SMILES | Tm [1] | Tm [2] | binding [3] | Tm [4] | Tm [5] | Tm [6] | binding [7] | binding [8] | ΔTm [9] | binding [10] | ΔTm [11] | Tm increase [12] | ΔTm [13] | binding [14] | ΔTm [15] | Tm increase [16]
1 | CN1C(=Cc2cc[n+](C)c3ccccc23)Sc2ccccc21 | 58±1.1 °C | 61±1.2 °C | yes | 73±0.3 °C | 52±1.0 °C | 54±1.6 °C |  |  |  |  |  |  |  |  |  | 
2 | CN1C(=Cc2cc[n+](CCCCC(=O)NCCSC[C@H]3O[C@@H](O[C@@H]4[C@@H](O)[C@H](N)C[C@H](N)[C@H]4O[C@H]4O[C@H](CN)[C@@H](O)[C@H](O)[C@H]4N)[C@H](O)[C@@H]3O[C@H]3O[C@@H](CN)[C@@H](O)[C@H](O)[C@H]3N)c3ccccc23)Sc2ccccc21 |  |  |  |  |  |  | yes | yes | 10 °C | yes | 21 °C | 10.8 °C | 1 °C | yes | 13 °C | 11 °C
3 | CN1C(=Cc2cc[n+](CCCCC(=O)NC[C@H]3O[C@@H](O[C@@H]4[C@@H](O)[C@H](N)C[C@H](N)[C@H]4O[C@H]4O[C@H](CN)[C@@H](O)[C@H](O)[C@H]4N)[C@H](O)[C@@H]3O[C@H]3O[C@@H](CN)[C@@H](O)[C@H](O)[C@H]3N)c3ccccc23)Sc2ccccc21 |  |  |  |  |  |  | yes | yes | 8 °C | yes | 13 °C | 13.8 °C | 0 °C | yes | 9 °C | 9.7 °C
